In ChEMBL document CHEMBL1201862, “PubChem BioAssay data set” (2004):
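Results reflect a 48-hour exposure of cells in 96-well plates to compound at five concentrations. GI50 = concentration required for 50% inhibition of growth.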 Active and inactive are the calls of the source. Rule as the data show it: active = GI50 up to about 1.1 µM and inactive = higher.

Assays:
Assay in all cases: DTP human tumour cell line panel, 48 h
[1] = system: 786-0
[2] = system: A549
[3] = system: ACHN
[4] = system: BT-549
[5] = system: CAKI-1
[6] = system: CCRF-CEM
[7] = system: COLO 205
[8] = system: DU-145
[9] = system: EKVX
[10] = system: HCC 2998
[11] = system: HCT-116
[12] = system: HCT-15
[13] = system: HL-60
[14] = system: HOP-62
[15] = system: HOP-92
[16] = system: HT-29
[17] = system: Hs-578T
[18] = system: IGROV-1
[19] = system: K562
[20] = system: KM12
[21] = system: LOX IMVI
[22] = system: M14
[23] = system: MCF7
[24] = system: MDA-MB-231
[25] = system: MDA-MB-435
[26] = system: MOLT-4
[27] = system: Malme-3M
[28] = system: NCI-H226
[29] = system: NCI-H23
[30] = system: NCI-H460
[31] = system: NCI-H522
[32] = system: NCI/ADR-RES
[33] = system: OVCAR-3
[34] = system: OVCAR-4
[35] = system: OVCAR-5
[36] = system: OVCAR-8
[37] = system: PC-3
[38] = system: RPMI-8226
[39] = system: RXF 393
[40] = system: SF-268
[41] = system: SF-295
[42] = system: SF-539
[43] = system: SK-MEL-28
[44] = system: SK-MEL-2
[45] = system: SK-MEL-5
[46] = system: SNB-19
[47] = system: SNB-75
[48] = system: SR
[49] = system: SW-620
[50] = system: TK-10
[51] = system: U-251
[52] = system: UACC-257
[53] = system: UACC-62
[54] = system: UO-31
[55] = system: MDA-N
[56] = system: SK-OV-3
[57] = system: SN12C
[58] = system: T47D

**Q.** With O=C(CBr)c1ccc2cc(Br)c3ccccc3c2c1 as the compound, how does the GI50 [1] read?
**A.** 37.6 µM (inactive)

**Q.** What about the GI50 [2] of the same compound?
**A.** 27.2 µM (inactive)

**Q.** And the GI50 [3]?
**A.** 52.1 µM (inactive)

**Q.** What about the GI50 [4] of the same compound?
**A.** 18.2 µM (inactive)

**Q.** What about the GI50 [5] of the same compound?
**A.** 18.2 µM (inactive)

**Q.** What about the GI50 [6] of the same compound?
**A.** 33.3 µM (inactive)

**Q.** What about the GI50 [7] of the same compound?
**A.** 24.1 µM (inactive)

**Q.** And the GI50 [8]?
**A.** 22.8 µM (inactive)

**Q.** What about the GI50 [9] of the same compound?
**A.** 24.5 µM (inactive)

**Q.** What about the GI50 [10] of the same compound?
**A.** 54.2 µM (inactive)

**Q.** What about the GI50 [11] of the same compound?
**A.** 40.3 µM (inactive)

**Q.** And the GI50 [12]?
**A.** 36.1 µM

**Q.** And the GI50 [13]?
**A.** 25.9 µM (inactive)

**Q.** What about the GI50 [14] of the same compound?
**A.** 37.4 µM (inactive)

**Q.** And the GI50 [15]?
**A.** 20.9 µM (inactive)

**Q.** What about the GI50 [16] of the same compound?
**A.** 32.3 µM (inactive)

**Q.** And the GI50 [17]?
**A.** 25.8 µM (inactive)

**Q.** And the GI50 [18]?
**A.** 29.6 µM (inactive)

**Q.** And the GI50 [19]?
**A.** 26.7 µM (inactive)

**Q.** And the GI50 [20]?
**A.** 17.8 µM (inactive)

**Q.** What about the GI50 [21] of the same compound?
**A.** 36.3 µM (inactive)

**Q.** And the GI50 [22]?
**A.** 25.1 µM (inactive)

**Q.** What about the GI50 [23] of the same compound?
**A.** 26.4 µM (inactive)

**Q.** What about the GI50 [24] of the same compound?
**A.** 18.2 µM (inactive)

**Q.** What about the GI50 [25] of the same compound?
**A.** 19.9 µM (inactive)

**Q.** What about the GI50 [26] of the same compound?
**A.** 4.25 µM (inactive)

**Q.** What about the GI50 [27] of the same compound?
**A.** 15.9 µM (inactive)

**Q.** And the GI50 [28]?
**A.** 9.33 µM (inactive)

**Q.** And the GI50 [29]?
**A.** 14.7 µM (inactive)

**Q.** And the GI50 [30]?
**A.** 23 µM (inactive)

**Q.** What about the GI50 [31] of the same compound?
**A.** 16.4 µM (inactive)

**Q.** And the GI50 [32]?
**A.** 36.7 µM (inactive)

**Q.** And the GI50 [33]?
**A.** 20.6 µM (inactive)

**Q.** What about the GI50 [34] of the same compound?
**A.** 25.3 µM (inactive)

**Q.** And the GI50 [35]?
**A.** 24.7 µM (inactive)

**Q.** And the GI50 [36]?
**A.** 24.2 µM (inactive)

**Q.** And the GI50 [37]?
**A.** 21 µM (inactive)

**Q.** And the GI50 [38]?
**A.** 20.3 µM (inactive)

**Q.** And the GI50 [39]?
**A.** 18.3 µM (inactive)

**Q.** And the GI50 [40]?
**A.** 20.3 µM (inactive)

**Q.** And the GI50 [41]?
**A.** 24.4 µM (inactive)

**Q.** And the GI50 [42]?
**A.** 20.9 µM (inactive)

**Q.** And the GI50 [43]?
**A.** 25.1 µM (inactive)

**Q.** What about the GI50 [44] of the same compound?
**A.** 20.6 µM (inactive)

**Q.** What about the GI50 [45] of the same compound?
**A.** 14.3 µM (inactive)

**Q.** And the GI50 [46]?
**A.** 31.9 µM (inactive)

**Q.** And the GI50 [47]?
**A.** 25.6 µM (inactive)

**Q.** What about the GI50 [48] of the same compound?
**A.** 12.1 µM (inactive)

**Q.** And the GI50 [49]?
**A.** 25.2 µM (inactive)

**Q.** And the GI50 [50]?
**A.** 21 µM (inactive)

**Q.** And the GI50 [51]?
**A.** 46.3 µM (inactive)

**Q.** What about the GI50 [52] of the same compound?
**A.** 24 µM (inactive)

**Q.** And the GI50 [53]?
**A.** 14.1 µM (inactive)

**Q.** What about the GI50 [54] of the same compound?
**A.** 25.6 µM (inactive)

**Q.** How did the GI50 [1] turn out when COc1cc(/C=C2/C(=O)N/C(=N\C(C)=O)N2C)ccc1OC(C)=O was run?
**A.** > 100 µM (inactive)

**Q.** What about the GI50 [2] of the same compound?
**A.** > 100 µM (inactive)

**Q.** And the GI50 [3]?
**A.** > 100 µM (inactive)

**Q.** What about the GI50 [4] of the same compound?
**A.** > 100 µM (inactive)

**Q.** And the GI50 [5]?
**A.** > 100 µM (inactive)

**Q.** What about the GI50 [7] of the same compound?
**A.** > 100 µM (inactive)

**Q.** What about the GI50 [8] of the same compound?
**A.** > 100 µM (inactive)

**Q.** And the GI50 [9]?
**A.** > 100 µM (inactive)

**Q.** What about the GI50 [10] of the same compound?
**A.** > 100 µM (inactive)

**Q.** And the GI50 [11]?
**A.** > 100 µM (inactive)

**Q.** What about the GI50 [12] of the same compound?
**A.** > 100 µM

**Q.** And the GI50 [13]?
**A.** 53.3 µM (inactive)

**Q.** And the GI50 [14]?
**A.** > 100 µM (inactive)

**Q.** And the GI50 [15]?
**A.** > 100 µM (inactive)

**Q.** And the GI50 [16]?
**A.** > 100 µM (inactive)

**Q.** And the GI50 [18]?
**A.** > 100 µM (inactive)

**Q.** What about the GI50 [20] of the same compound?
**A.** > 100 µM (inactive)

**Q.** And the GI50 [21]?
**A.** > 100 µM (inactive)

**Q.** And the GI50 [22]?
**A.** > 100 µM (inactive)

**Q.** What about the GI50 [23] of the same compound?
**A.** > 100 µM (inactive)

**Q.** What about the GI50 [24] of the same compound?
**A.** > 100 µM (inactive)

**Q.** And the GI50 [25]?
**A.** > 100 µM (inactive)

**Q.** What about the GI50 [55] of the same compound?
**A.** > 100 µM (inactive)

**Q.** And the GI50 [26]?
**A.** > 100 µM (inactive)

**Q.** And the GI50 [28]?
**A.** > 100 µM (inactive)

**Q.** What about the GI50 [29] of the same compound?
**A.** > 100 µM (inactive)

**Q.** What about the GI50 [30] of the same compound?
**A.** > 100 µM (inactive)

**Q.** And the GI50 [32]?
**A.** > 100 µM (inactive)

**Q.** And the GI50 [33]?
**A.** > 100 µM (inactive)

**Q.** What about the GI50 [34] of the same compound?
**A.** > 100 µM (inactive)

**Q.** What about the GI50 [35] of the same compound?
**A.** > 100 µM (inactive)

**Q.** And the GI50 [36]?
**A.** > 100 µM (inactive)

**Q.** What about the GI50 [37] of the same compound?
**A.** > 100 µM (inactive)

**Q.** And the GI50 [41]?
**A.** > 100 µM (inactive)

**Q.** And the GI50 [42]?
**A.** > 100 µM (inactive)

**Q.** What about the GI50 [43] of the same compound?
**A.** > 100 µM (inactive)

**Q.** What about the GI50 [44] of the same compound?
**A.** > 100 µM (inactive)

**Q.** And the GI50 [45]?
**A.** > 100 µM (inactive)

**Q.** What about the GI50 [56] of the same compound?
**A.** > 100 µM (inactive)

**Q.** What about the GI50 [57] of the same compound?
**A.** > 100 µM (inactive)

**Q.** And the GI50 [46]?
**A.** > 100 µM (inactive)

**Q.** And the GI50 [47]?
**A.** > 100 µM (inactive)

**Q.** And the GI50 [49]?
**A.** > 100 µM (inactive)

**Q.** What about the GI50 [58] of the same compound?
**A.** > 100 µM (inactive)

**Q.** And the GI50 [50]?
**A.** 47.9 µM (inactive)

**Q.** And the GI50 [51]?
**A.** > 100 µM (inactive)

**Q.** What about the GI50 [52] of the same compound?
**A.** > 100 µM (inactive)

**Q.** What about the GI50 [53] of the same compound?
**A.** > 100 µM (inactive)

**Q.** What about the GI50 [54] of the same compound?
**A.** > 100 µM (inactive)
